Experiment [1] concerns the target B-Raf delta1-415 (Homo sapiens, UniProt P15056). The experiment in a line: B-Raf kinase inhibition (MAPH filter plate, 33P-ATP, MEK1 substrate). To be noted: read-out: Biochemical IC50 B-Raf. The gist of the method:
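IC50 values come from dilution series (top 10 μM) measured by scintillation counting of 33P-labelled MEK1 retained on H3PO4-washed filters. Reactions ran 1 h at room temperature in pH 7.0 Mops buffer with MgCl2, MnCl2 and DTT, using 12.5 μCi/ml [γ-33P]ATP and B-Raf delta1-415 titrated to 50% turnover.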

Experiment [2] concerns HT-29 tumor cells. The experiment in a line: Anti-proliferative activity, SRB assay. The class given is cell-based, human. To be noted: Homo sapiens, HT-29, 72 h, 72 hours exposure, read-out: CELLULAR IC50 HT-29. The gist of the method: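 IC50 derived from % inhibition relative to DMSO controls, measured by sulforhodamine B binding (OD570) after TCA fixation. Cells (3,000-15,000 per well) were seeded a day ahead, then treated with graded compound concentrations for 72 hours.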

For experiment [3], the target named is C-Raf Raf-1 (truncated), active (Homo sapiens, UniProt P04049, Y340D/Y341D). Briefly: C-Raf kinase inhibition (MAPH assay / IMAP assay). Particulars: read-out: Biochemical IC50 C-Raf. The source says: We characterized the in vitro inhibitory activity against protein kinases of compounds of the present invention by determining their IC50 values (see Table 2).
Sequence of C-Raf Raf-1 (truncated), active (P04049 306-648 Y340D/Y341D): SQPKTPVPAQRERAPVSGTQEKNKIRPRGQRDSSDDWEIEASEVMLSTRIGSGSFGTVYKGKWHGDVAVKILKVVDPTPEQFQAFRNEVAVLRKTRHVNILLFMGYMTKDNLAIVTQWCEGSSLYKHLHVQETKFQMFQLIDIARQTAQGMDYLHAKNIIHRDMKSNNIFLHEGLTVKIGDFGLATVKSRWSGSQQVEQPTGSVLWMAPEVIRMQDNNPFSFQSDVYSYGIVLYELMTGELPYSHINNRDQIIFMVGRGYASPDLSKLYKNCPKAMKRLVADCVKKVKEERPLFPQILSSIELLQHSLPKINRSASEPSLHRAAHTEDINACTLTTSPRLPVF
Kinase: C-Raf Raf-1 (truncated), active (Upstate; cat. no. 14-352)
Reaction Temperature: room temperature
Assay Plate: 96 well U bottom plate (Greiner, 650161)
MultiScreen-PH Plate: 96 well MAPH Filter Plates (Millipore, MAPHNOB50)
Filter Washing Solution: 0.75% H3PO4
Scintillation Liquid: Supermix Liquid Scintillator (PerkinElmer, 1200-439)
Negative Control (C−): 100 mM EDTA, no inhibitor
Positive Control (C+): no inhibitor
Reaction Buffer (Final Concentration):
Final Assay Concentrations:
Kinase: Use kinase conc. yielding 10% ATP turnover as determined in titration experiment.
Adenosine 5′-[γ-^33P]triphosphate: 12.5 μCi/ml (Amersham Biosciences, BF1000)
Substrate: Myelin Basic Protein 57.8 μM (Invitrogen, 13228-010)
Pipetting Sequence: • 1) Add 10 μl 4-fold concentrated substrate+4-fold concentrated ATP in 3-fold concentrated reaction buffer to each well of assay plate • 2) Add 10 μl […] concentrated inhibitor in 4% DMSO in H2O to each well except to C− and C+ wells (starting point: final inhibitor concentration 10 μM; IC50 determination based on dilution series) • 3) Add 10 μl 4% DMSO in H2O to C− and C+ wells • 4) Add 10 μl 500 mM EDTA in H2O to C− wells • 5) Add 10 μl 50 μCi/ml adenosine 5′-[γ-^33P]triphosphate in H2O to each well • 6) Add 10 μl […] concentrated kinase in Reaction Buffer to each well • 7) Incubate 1 hr at room temperature • 8) Add 10 μl 50 mM EDTA in H2O to each well except to C− wells • 9) Prepare MAPH plates by adding 200 μl 0.75% H3PO4 to each well • 10) Exhaust 0.75% H3PO4 using Millipore vacuum station • 11) Add 60 μl 0.75% H3PO4 to each well of MAPH filter plate • 12) Transfer 30 μl sample per well from assay plate to corresponding well of MAPH filter plate • 13) Incubate 30 min at room temperature • 14) Wash each well of MAPH filter plates 3× with 200 μl 0.75% H3PO4 using Millipore vacuum station • 15) Add 20 μl scintillation liquid to each well of MAPH filter plate • 16) Seal MAPH filter plate • 17) Store MAPH filter plate 30 min in darkness • 18) Quantify radioactivity using scintillation counter (MicroBeta, Perkin-Elmer)
Reaction Volume: 8.0108 μl
IMAP Incubation Time: 60 min
Assay Plate: 384 well U bottom, PP, black, low volume (Corning, 3676)
Compound Plate: 384 well U bottom, PS (Falcon, 3995)
IMAP Binding Buffer A: Molecular Devices, R7282
IMAP Binding Buffer B: Molecular Devices, R7283
IMAP Binding Reagent: Molecular Devices, R7207
Negative Control (C−): no kinase, no inhibitor
Reation buffer: 20 mM Hepes, pH 7.5 • 1 mM DTT • 10 mM MnCl2 • 0.01% Brij35
Kinase: Kinase conc. yielding 50% substrate turnover as determined in titration experiment • c-Raf (Upstate 14-352)
Substrate: 5F1-SGQLIDSMANSFV-NH2 400 nM (jpt Peptide Technologies GmbH, Berlin, Germany)
IMAP Binding Solution: 75% IMAP Binding Buffer A • 25% IMAP Binding Buffer B • IMAP Binding Reagent 1:800
Pipetting Sequence: • 1) Add 6 μl 1.33-fold concentrated substrate+1.33-fold concentrated ATP in 1-fold concentrated reaction buffer to each well of assay plate • 2) Add 10.8 nl 740-fold concentrated inhibitor in 100% DMSO to each well except to C− and C+ wells using pintool (CyBio, Jena, Germany) (starting point: final inhibitor concentration 10 μM; IC50 determination based on dilution series) • 3) Add 10.8 nl 100% DMSO to C− and C+ wells using pintool • 4) Add 2 μl reaction buffer to C− wells • 5) Add 2 μl 4-fold concentrated kinase in reaction buffer to each well except C− wells • 6) Incubate according to reaction time at room temperature • 7) Add 15 μl IMAP binding solution to each well • 8) Incubate according to IMAP incubation time at room temperature • 9) Measure fluorescence polarization (Analyst GT, Molecular Devices)

Each structure is given as a SMILES string. Bounds are passed on as bounds.

As a reminder, the IC50 is the concentration that gives 50% inhibition.

Sequence of B-Raf delta1-415 (P15056 416-766): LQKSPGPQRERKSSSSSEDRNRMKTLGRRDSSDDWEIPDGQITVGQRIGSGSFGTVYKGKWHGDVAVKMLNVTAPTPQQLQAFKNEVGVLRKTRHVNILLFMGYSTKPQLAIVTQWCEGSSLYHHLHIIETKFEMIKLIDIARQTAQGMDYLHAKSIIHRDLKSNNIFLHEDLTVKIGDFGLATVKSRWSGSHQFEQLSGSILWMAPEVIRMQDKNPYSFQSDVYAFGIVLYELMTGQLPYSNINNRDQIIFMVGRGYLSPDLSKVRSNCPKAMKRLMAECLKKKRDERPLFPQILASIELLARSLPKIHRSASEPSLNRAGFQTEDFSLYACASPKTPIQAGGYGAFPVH

As to `COn1c(=O)c(-c2ccc(Cl)cc2Cl)cc2cnc(Nc3ccc(N4CCN(C)CC4)cc3)nc21` [Compound 19, 6-(2,4-Dichlorophenyl)-8-methoxy-2-(4-(4-methylpiperazino)-phenylamino)-pyrido[2,3-d]pyrimidin-7-one], the half-inhibitory concentration (IC50) in experiment [1] was under 0.5 µM; in experiment [2], under 1 µM; in experiment [3] it was under 0.1 µM.
For `COCCOn1c(=O)c(-c2ccccc2Cl)cc2cnc(Nc3ccccc3)nc21` [Compound 20] the same measures were under 0.5 µM, under 1 µM and under 0.1 µM.
The matching figures for `COn1c(=O)c(-c2c(Cl)cccc2Cl)cc2cnc(Nc3cccc(CN4CCCC4)c3)nc21` [Compound 21, 6-(2,6-Dichlorophenyl)-8-methoxy-2-(3-(pyrrolidin-1-yl)methylphenylamino)-pyrido[2,3-d]pyrimidin-7-one]: under 0.5 µM, under 1 µM and under 0.1 µM.
For `COn1c(=O)c(-c2ccccc2Cl)cc2cnc(Nc3ccccc3)nc21` [Compound 22, 6-(2-Chlorophenyl)-8-methoxy-2-phenylamino-pyrido[2,3-d]pyrimidin-7-one] the same measures were under 0.5 µM, under 10 µM and under 0.1 µM.
For the compound `COn1c(=O)c(-c2cc(N)ccc2Cl)cc2cnc(Nc3ccccc3)nc21` [Compound 23, 6-(5-Amino-2-chlorophenyl)-8-methoxy-2-phenylamino-pyrido[2,3-d]pyrimidin-7-one], the IC50 in experiment [1] is under 0.5 µM; in experiment [2], under 10 µM; in experiment [3], under 0.1 µM.
For `COn1c(=O)c(-c2c(Cl)cccc2Cl)cc2cnc(Nc3ccc(OCCN(C)C)cc3)nc21` [Compound 24, 6-(2,6-Dichlorophenyl)-8-methoxy-2-(4-(2-dimethylaminoethoxy)-phenylamino)-pyrido[2,3-d]pyrimidin-7-one], the IC50 in experiment [1] was under 0.1 µM; in experiment [2], under 1 µM; in experiment [3] it was under 0.1 µM.
Turning to `COn1c(=O)c(-c2c(F)cccc2Cl)cc2cnc(Nc3ccc(N4CCN(C)CC4)cc3)nc21` [Compound 25, 6-(2-Chloro-6-fluorophenyl)-8-methoxy-2-(4-(4-methylpiperazino)-phenylamino)-pyrido[2,3-d]pyrimidin-7-one], the IC50 in experiment [1] is under 0.1 µM; in experiment [2], under 1 µM; in experiment [3], under 0.1 µM.
As for `COn1c(=O)c(-c2c(Cl)cccc2Cl)cc2cnc(Nc3cc(CO)ccc3F)nc21` [Compound 27, 6-(2,6-Dichlorophenyl)-2-(2-fluoro-5-(hydroxymethyl)phenylamino)-8-methoxy-pyrido[2,3-d]pyrimidin-7-one], the IC50 was over 1 µM in experiment [1], under 10 µM in experiment [2] and under 0.1 µM in experiment [3].
The matching figures for `COn1c(=O)c(-c2cccc(NC(=O)c3ccccc3)c2Cl)cc2cnc(Nc3ccccc3)nc21` [Compound 28]: over 10 µM, under 1 µM and under 0.1 µM.
Consider `COn1c(=O)c(-c2cc(NC(=O)c3ccccc3)ccc2Cl)cc2cnc(Nc3ccccc3)nc21` [Compound 29], for which the values for the IC50 in experiment [1], in experiment [2] and in experiment [3] were under 0.5 µM, under 10 µM and under 0.1 µM, respectively.
For `COn1c(=O)c(-c2c(F)cccc2Cl)cc2cnc(Nc3cccc(S(N)(=O)=O)c3)nc21` [Compound 30, 6-(2-Chloro-6-fluorophenyl)-8-methoxy-2-(3-sulfamoylphenylamino)-pyrido[2,3-d]pyrimidin-7-one] the same measures were under 0.1 µM, under 1 µM and under 0.1 µM.
For `COn1c(=O)c(-c2cc(NC(=O)c3cccnc3)ccc2Cl)cc2cnc(Nc3ccccc3)nc21` [Compound 31] the same measures were over 1 µM, under 10 µM and under 0.1 µM.
Take `COn1c(=O)c(-c2cc(NC(=O)C(C)C)ccc2Cl)cc2cnc(Nc3ccccc3)nc21` [Compound 32]: the half-maximal inhibitory concentration (IC50) in experiment [1] is over 1 µM; in experiment [2], under 10 µM; in experiment [3], under 0.1 µM.
As to `COCCNc1ncc2cc(-c3cc(NC(=O)c4ccccc4)ccc3Cl)c(=O)n(OC)c2n1` [Compound 33], the IC50 in experiment [1] was under 0.5 µM; in experiment [2], under 10 µM; in experiment [3] it was under 0.1 µM.
In the case of `NCCCCOn1c(=O)c(-c2c(Cl)cccc2Cl)cc2cnc(Nc3ccccc3)nc21` [Compound 34, 8-(4-Aminobutoxy)-6-(2,6-dichlorophenyl)-2-phenylamino-pyrido[2,3-d]pyrimidin-7-one], the IC50 in experiment [1] was under 1 µM; in experiment [2], under 1 µM; in experiment [3], under 0.1 µM.
Regarding `COn1c(=O)c(-c2cc(NC(=O)c3cccc(C(F)(F)F)c3)ccc2Cl)cc2cnc(Nc3ccccc3)nc21` [Compound 35], the figures for the half-maximal inhibitory concentration (IC50) in experiment [1], in experiment [2] and in experiment [3] were over 1 µM, under 1 µM and under 0.5 µM, respectively.
The matching figures for `COn1c(=O)c(-c2cc(NC(=O)c3cccc(Cl)c3)ccc2Cl)cc2cnc(Nc3ccccc3)nc21` [Compound 36]: over 1 µM, under 10 µM and under 0.1 µM.
The matching figures for `COn1c(=O)c(-c2cc(NC(=O)c3ccc(Cl)cc3)ccc2Cl)cc2cnc(Nc3ccccc3)nc21` [Compound 37]: over 1 µM, under 10 µM and under 0.1 µM.
Consider `COn1c(=O)c(-c2c(C)cccc2C)cc2cnc(Nc3ccc(N4CCN(C)CC4)cc3)nc21` [Compound 38, 6-(2,6-Dimethylphenyl)-8-methoxy-2-(4-(4-methylpiperazino)-phenylamino)-pyrido[2,3-d]pyrimidin-7-one], for which the IC50 in experiment [1] was under 0.1 µM; in experiment [2] it was under 1 µM; in experiment [3], under 0.1 µM.
On to `COc1cccc(Cl)c1-c1cc2cnc(Nc3ccc(N4CCN(C)CC4)cc3)nc2n(OC)c1=O` [Compound 39, 6-(2-Chloro-6-methoxyphenyl)-8-methoxy-2-(4-(4-methylpiperazino)-phenylamino)-pyrido[2,3-d]pyrimidin-7-one], for which the concentration for half-maximal inhibition (IC50) in experiment [1] was under 0.5 µM; in experiment [2] it was under 1 µM; in experiment [3] it was under 0.1 µM.
For `NCCCCOn1c(=O)c(-c2c(Cl)cccc2Cl)cc2cnc(Nc3cccc(S(N)(=O)=O)c3)nc21` [Compound 40, 8-(4-Aminobutoxy)-6-(2,6-dichlorophenyl)-2-(3-sulfamoylphenylamino)-pyrido[2,3-d]pyrimidin-7-one] the same measures were under 0.1 µM, over 10 µM and under 0.1 µM.

Values taken from patent US8518958B2, “Pyrido [2,3-D] pyrimidines and their use as kinase inhibitors” (Forma Therapeutics, Inc., priority 2006, dated 2013).
